Results as given in PubChem BioAssay (NCI).
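GI50 marks 50% less growth. TGI: total growth inhibition.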

Assays:
Experiment in all cases: NCI-60 cell line screen, 384-well format
A498 renal = test system: A498 renal
A549 NSCLC = test system: A549 NSCLC
BT-549 breast = test system: BT-549 breast
CAKI-1 renal = test system: CAKI-1 renal
CCRF-CEM leukemia = test system: CCRF-CEM leukemia
DU-145 prostate = test system: DU-145 prostate
HCT-116 colon = test system: HCT-116 colon
HCT-15 colon = test system: HCT-15 colon
HL-60(TB) leukemia = test system: HL-60(TB) leukemia
HOP-62 NSCLC = test system: HOP-62 NSCLC
HS 578T breast = test system: HS 578T breast
HT29 colon = test system: HT29 colon
IGROV1 ovarian = test system: IGROV1 ovarian
K-562 leukemia = test system: K-562 leukemia
KM12 colon = test system: KM12 colon
LOX IMVI melanoma = test system: LOX IMVI melanoma
M14 melanoma = test system: M14 melanoma
MALME-3M melanoma = test system: MALME-3M melanoma
MCF7 breast = test system: MCF7 breast
MDA-MB-231 breast = test system: MDA-MB-231 breast
MDA-MB-435 melanoma = test system: MDA-MB-435 melanoma
MDA-MB-468 breast = test system: MDA-MB-468 breast
MOLT-4 leukemia = test system: MOLT-4 leukemia
NCI-H226 lung = test system: NCI-H226 lung
NCI-H23 lung = test system: NCI-H23 lung
NCI-H322M lung = test system: NCI-H322M lung
NCI-H522 lung = test system: NCI-H522 lung
NCI/ADR-RES ovarian = test system: NCI/ADR-RES ovarian
OVCAR-3 ovarian = test system: OVCAR-3 ovarian
OVCAR-4 ovarian = test system: OVCAR-4 ovarian
OVCAR-8 ovarian = test system: OVCAR-8 ovarian
PC-3 prostate = test system: PC-3 prostate
SF-268 CNS = test system: SF-268 CNS
SF-295 CNS = test system: SF-295 CNS
SK-MEL-28 melanoma = test system: SK-MEL-28 melanoma
SK-MEL-5 melanoma = test system: SK-MEL-5 melanoma
SK-OV-3 ovarian = test system: SK-OV-3 ovarian
SN12C renal = test system: SN12C renal
SNB-19 CNS = test system: SNB-19 CNS
SNB-75 CNS = test system: SNB-75 CNS
SR leukemia = test system: SR leukemia
T-47D breast = test system: T-47D breast
TK-10 renal = test system: TK-10 renal
U251 glioblastoma = test system: U251 glioblastoma
UACC-257 melanoma = test system: UACC-257 melanoma
UACC-62 melanoma = test system: UACC-62 melanoma
UO-31 renal = test system: UO-31 renal

`CNCc1ccccc1-c1csc([C@@H](C)Nc2nc(C)nc3cc(OC)c(OC)cc23)c1` gave a GI50 (A498 renal) of 1030 nM, a TGI (A498 renal) of 2190 nM and a GI50 (A549 NSCLC) of 1670 nM. The TGI (A549 NSCLC) was 3040 nM, the GI50 (BT-549 breast) was 1250 nM and the TGI (BT-549 breast) was 2500 nM. For the same compound, the GI50 (CAKI-1 renal) was 1050 nM, the TGI (CAKI-1 renal) was 2220 nM and the GI50 (CCRF-CEM leukemia) was 1070 nM. It also gave a TGI (CCRF-CEM leukemia) of 2260 nM, a GI50 (DU-145 prostate) of 1710 nM and a TGI (DU-145 prostate) of 3200 nM. For the same compound, the GI50 (HCT-116 colon) was 1290 nM, the TGI (HCT-116 colon) was 2560 nM and the GI50 (HCT-15 colon) was 1500 nM. It also gave a TGI (HCT-15 colon) of 2830 nM, a GI50 (HL-60(TB) leukemia) of 1080 nM and a TGI (HL-60(TB) leukemia) of 2270 nM. It also gave a GI50 (HOP-62 NSCLC) of 1480 nM, a TGI (HOP-62 NSCLC) of 2800 nM and a GI50 (HS 578T breast) of 302 nM. The TGI (HS 578T breast) was 2110 nM, the GI50 (HT29 colon) was 1560 nM and the TGI (HT29 colon) was 2910 nM. The GI50 (IGROV1 ovarian) was 1310 nM, the TGI (IGROV1 ovarian) was 2590 nM and the GI50 (K-562 leukemia) was 64 nM. It also gave a TGI (K-562 leukemia) of 723 nM, a GI50 (KM12 colon) of 914 nM and a TGI (KM12 colon) of 2140 nM. For the same compound, the GI50 (LOX IMVI melanoma) was 1650 nM, the TGI (LOX IMVI melanoma) was 3010 nM and the GI50 (M14 melanoma) was 1560 nM. It also gave a TGI (M14 melanoma) of 2900 nM, a GI50 (MALME-3M melanoma) of 1560 nM and a TGI (MALME-3M melanoma) of 2900 nM. The GI50 (MCF7 breast) was 1290 nM, the TGI (MCF7 breast) was 2570 nM and the GI50 (MDA-MB-231 breast) was 1720 nM. It also gave a TGI (MDA-MB-231 breast) of 3100 nM, a GI50 (MDA-MB-435 melanoma) of 1570 nM and a TGI (MDA-MB-435 melanoma) of 2910 nM. For the same compound, the GI50 (MDA-MB-468 breast) was 287 nM, the TGI (MDA-MB-468 breast) was 1560 nM and the GI50 (MOLT-4 leukemia) was 1180 nM. For the same compound, the TGI (MOLT-4 leukemia) was 2400 nM, the GI50 (NCI-H226 lung) was 1250 nM and the TGI (NCI-H226 lung) was 2580 nM. For the same compound, the GI50 (NCI-H23 lung) was 1250 nM, the TGI (NCI-H23 lung) was 2540 nM and the GI50 (NCI-H322M lung) was 1210 nM. The TGI (NCI-H322M lung) was 2480 nM, the GI50 (NCI-H522 lung) was 1160 nM and the TGI (NCI-H522 lung) was 2390 nM. For the same compound, the GI50 (NCI/ADR-RES ovarian) was 1620 nM, the TGI (NCI/ADR-RES ovarian) was 2990 nM and the GI50 (OVCAR-3 ovarian) was 1260 nM. The TGI (OVCAR-3 ovarian) was 2520 nM, the GI50 (OVCAR-4 ovarian) was 1140 nM and the TGI (OVCAR-4 ovarian) was 2380 nM. It also gave a GI50 (OVCAR-8 ovarian) of 1500 nM, a TGI (OVCAR-8 ovarian) of 2830 nM and a GI50 (PC-3 prostate) of 1530 nM. It also gave a TGI (PC-3 prostate) of 2970 nM, a GI50 (SF-268 CNS) of 1610 nM and a TGI (SF-268 CNS) of 2960 nM. The GI50 (SF-295 CNS) was 1700 nM, the TGI (SF-295 CNS) was 3070 nM and the GI50 (SK-MEL-28 melanoma) was 1510 nM. The TGI (SK-MEL-28 melanoma) was 2840 nM, the GI50 (SK-MEL-5 melanoma) was 1150 nM and the TGI (SK-MEL-5 melanoma) was 2370 nM. For the same compound, the GI50 (SK-OV-3 ovarian) was 1310 nM, the TGI (SK-OV-3 ovarian) was 2580 nM and the GI50 (SN12C renal) was 1030 nM. For the same compound, the TGI (SN12C renal) was 2200 nM, the GI50 (SNB-19 CNS) was 1450 nM and the TGI (SNB-19 CNS) was 2770 nM. For the same compound, the GI50 (SNB-75 CNS) was 1300 nM, the TGI (SNB-75 CNS) was 2570 nM and the GI50 (SR leukemia) was 676 nM. It also gave a TGI (SR leukemia) of 1940 nM, a GI50 (T-47D breast) of 1130 nM and a TGI (T-47D breast) of 2340 nM. It also gave a GI50 (TK-10 renal) of 1450 nM, a TGI (TK-10 renal) of 2770 nM and a GI50 (U251 glioblastoma) of 1440 nM. It also gave a TGI (U251 glioblastoma) of 2750 nM, a GI50 (UACC-257 melanoma) of 275 nM and a TGI (UACC-257 melanoma) of 810 nM. For the same compound, the GI50 (UACC-62 melanoma) was 1700 nM, the TGI (UACC-62 melanoma) was 3080 nM and the GI50 (UO-31 renal) was 1520 nM. It also gave a TGI (UO-31 renal) of 2850 nM.
